Laboratory results published in US12201848B2, “Device and methods for use in removal of bio-film and treatment of halitosis” (priority 2016, dated 2025).
“Also recorded” adds a separate entry of the source.

How the values were obtained:
[1] = system: Porphyromonas Gingivalis and Prevotella Intermedia; test: Lethal photosensitization of oral pathogens by methylene blue and red-filtered halogen light (colony count); type: cell-based; conditions: for Percent of Living Bacteria: mean of both species +/- SD
Procedure: Suitable stain dosages for providing lethal sensitization of oral pathogens are determined in vitro by the following procedure. An objective is to determine the minimum duration of light exposure and minimum agent dilution required to achieve at least a 50% reduction in bacteria counts. Experimental tests are performed on two common pathogens using a continuously working, high intensity, red filtered halogen lamp. Red light from the filtered halogen lamp is transmitted through a flexible light guide to radiate downwardly onto petri dishes containing samples of live bacteria of species Porphyromonas Gingivalis and Prevotella Intermedia using the protocols described below. Bacteria. Prevoltella Intermedia is isolated from patient sample material, identified in the laboratory using standard diagnostic test systems (Remel Inc., Lenexa, Kans., USA) and is maintained by twice-weekly subculture in thioglycollate medium (Becton Dickinson and Co, Sparks, Md., USA). P. gingivalis ATCC 33277 obtained from Remel Inc., is maintained by a twice-weekly subculture on CDC anaerobe blood agar (Becton Dickinson and Co, USA) and in thioglycollate medium (Becton Dickinson and Co, USA). Light Source. The source for light energy is a continuously working, high intensity halogen lamp having a built-in 250-Watt quartz halogen light source, model I-250 supplied by Medithon, New York, N.Y., USA. Such lights are customarily employed for ear, nose or throat procedures. The light is transmitted through a flexible light guide and filtered to maintain maximum energy output at wavelengths in the vicinity of about 650 nm using a broadband red filter (Edmund Optics Inc., Barrington, N.J., USA). The light output power density measured at 3 cm distance from the end of the light guide with filter is about 50 milliwatts/cm2. Photosensitizer. […] Lethal photosensitization of P. Intermedia. Petri dishes containing CDC anaerobe blood agar (Becton Dickinson and Co, USA) are inoculated with 0.5 ml of broth containing 5×10^5 CFU/ml and left closed at room temperature for about 10 minutes to let the broth penetrate the agar media. […] Only plates with concentrations of 0.01%, and 0.025% are used in the experiment with 20 min light exposure. Four plates are used for each experiment. […] The controls are covered to protect them from ambient light. […] A total of 108 subcultures is used for the experiment. Plates are incubated in anaerobic conditions in the jars using anaerobic pack kits (BBL GasPak Plus, Becton Dickinson and Co, Sparks, Md., USA) at 37° C. for 24 hours. Samples of the resulting culture growth are taken from each plate with sterile […] standard loop, dispensed in 1 ml of sterile NS and placed at the same media. Cultures are incubated at anaerobic conditions at 37° C. for another 24 hours, and after that the resulting colony count is performed on each plate. Lethal photosensitization of P. Gingivalis. Serial dilutions of the P. gingivalis culture are prepared from the initial culture preserved on plates using 1:L sterile standard loop (Becton Dickinson and Co, USA) and sterile NS. A Vitek calorimeter (Hach Company, Loveland, Colo., USA) is used to achieve a final concentration of about 5×10^3 CFU/ml from an initial 0.5 standard McFarland suspension of 10^8 CFU/ml. Plates containing CDC anaerobic blood agar (Becton Dickinson and Co, USA) are inoculated with the resulting suspension using sterile 10:L standard loops (Becton Dickinson and Co, USA). […] Plates are also incubated at 37° C. in the tightly closed jars supplied with anaerobic pack kits (BBL GasPak Plus, Becton Dickinson and Co, USA) for 24 hours, and the resulting colony count is performed on each plate.

P. gingivalis ATCC 33277 = test: Lethal photosensitization of P. Gingivalis (colony count); type: cell-based
Procedure: Suitable stain dosages for providing lethal sensitization of oral pathogens are determined in vitro by the following procedure. An objective is to determine the minimum duration of light exposure and minimum agent dilution required to achieve at least a 50% reduction in bacteria counts. Experimental tests are performed on two common pathogens using a continuously working, high intensity, red filtered halogen lamp. Red light from the filtered halogen lamp is transmitted through a flexible light guide to radiate downwardly onto petri dishes containing samples of live bacteria of species Porphyromonas Gingivalis and Prevotella Intermedia using the protocols described below. Bacteria. Prevoltella Intermedia is isolated from patient sample material, identified in the laboratory using standard diagnostic test systems (Remel Inc., Lenexa, Kans., USA) and is maintained by twice-weekly subculture in thioglycollate medium (Becton Dickinson and Co, Sparks, Md., USA). P. gingivalis ATCC 33277 obtained from Remel Inc., is maintained by a twice-weekly subculture on CDC anaerobe blood agar (Becton Dickinson and Co, USA) and in thioglycollate medium (Becton Dickinson and Co, USA). Light Source. […] The light output power density measured at 3 cm distance from the end of the light guide with filter is about 50 milliwatts/cm2. […]

CN(C)c1ccc2nc3ccc(=[N+](C)C)cc-3sc2c1 [methylene blue]
reduction of bacteria without exposure to light ([1]; 0.05% methylene blue alone): insignificant
difference between exposure for 10 and 20 minutes ([1]; either species, any concentration of methylene blue): No statistically significant difference
killing of bacteria without halogen light ([1]; methylene blue 0.001% or 0.025%, without halogen light): nor concentrations of methylene blue of 0.001% or 0.025%, without halogen light, appeared to be effective in killing bacteria
bactericidal effect with red-filtered light ([1]; methylene blue 0.01% or higher, exposure less than 10 minutes, accumulated energy 30 J/cm2, both species): bactericidal effect
Percent of Living Bacteria ([1]; methylene blue 0.01%, exposure to red light 0): 70 +/− 11%
Percent of Living Bacteria ([1]; methylene blue 0.01%, red light 1 min): 73 +/− 6%
Percent of Living Bacteria ([1]; methylene blue 0.01%, red light 5 min): 69 +/− 7%
Percent of Living Bacteria ([1]; methylene blue 0.01%, red light 10 min): 55 +/− 6%
Percent of Living Bacteria ([1]; methylene blue 0.01%, red light 20 min): 51 +/− 4%
Percent of Living Bacteria ([1]; methylene blue 0.025%, exposure to red light 0): 75 +/− 14%
reduction in bacteria counts ([1]; methylene blue 0.025%, light exposure 5 min): Significant reduction in bacteria counts
Percent of Living Bacteria ([1]; methylene blue 0.025%, red light 1 min): 67 +/− 4%
Percent of Living Bacteria ([1]; methylene blue 0.025%, red light 5 min): 47 +/− 6%
Percent of Living Bacteria ([1]; methylene blue 0.025%, red light 10 min): 48 +/− 8%
Percent of Living Bacteria ([1]; methylene blue 0.025%, red light 20 min): 49 +/− 5%
killing with duration of red light ([1]; methylene blue 0.025%, time intervals 5 and 10 min): statistically significant increased killing with duration
reduction in bacteria counts ([1]; methylene blue 0.05% and higher, light exposure 1 min): Significant reduction in bacteria counts
Percent of Living Bacteria ([1]; methylene blue 0.05%, exposure to red light 0): 68 +/− 12%
Percent of Living Bacteria ([1]; methylene blue 0.05%, red light 1 min): 53 +/− 10%
Percent of Living Bacteria ([1]; methylene blue 0.05%, red light 5 min): 32 +/− 7%
Percent of Living Bacteria ([1]; methylene blue 0.05%, red light 10 min): 32 +/− 9%
killing with duration of red light ([1]; methylene blue 0.05%, time intervals 1 min, 5 min and 10 min): statistically significant increased killing with duration
bacterial count reduction ([1]; methylene blue 0.075% and 0.1%, light exposure 1 min, both cultures): statistically significant bacterial count reduction
bactericidal effect without light exposure ([1]; methylene blue 0.075% and 0.1%, no red light): significant bactericidal effect; also recorded: significantly bactericidal
Percent of Living Bacteria ([1]; methylene blue 0.075%, exposure to red light 0): 51 +/− 10%
Percent of Living Bacteria ([1]; methylene blue 0.075%, red light 1 min): 45 +/− 5%
Percent of Living Bacteria ([1]; methylene blue 0.075%, red light 5 min): 26 +/− 5%
Percent of Living Bacteria ([1]; methylene blue 0.075%, red light 10 min): 25 +/− 5%
Percent of Living Bacteria ([1]; methylene blue 0.1%, exposure to red light 0): 35 +/− 9%
Percent of Living Bacteria ([1]; methylene blue 0.1%, red light 1 min): 39 +/− 12%
Percent of Living Bacteria ([1]; methylene blue 0.1%, red light 5 min): 28 +/− 9%
Percent of Living Bacteria ([1]; methylene blue 0.1%, red light 10 min): 24 +/− 4%
bacterial killing without light exposure (P. gingivalis ATCC 33277; methylene blue 0.01%, no light, P. gingivalis culture): statistically significant bacterial killing
bactericidal effect on P. gingivalis (P. gingivalis ATCC 33277; methylene blue 0.1%): bactericidal effect
